The source of these data is patent US20160349242A1, “PLATFORM TECHNOLOGIES FOR SPONTANEOUSLY OCCURRING DISEASES” (Oatmeal Biotechnologies Group, LLC, priority 2009, published 2016).

Where two headings read alike, the source gives them in different places. Square brackets hold non-standard residues; d marks the D form. Peptide text beside a SMILES is read from it. d(aIle) = CC[C@H](C)[C@@H](N)C(=O)O; Nva = CCC[C@H](N)C(=O)O; Sar = CNCC(=O)O A value given as a limit tells only on which side of the number the result lay.

One data set relates to tumor growth. The conditions noted are these: mouse, in vivo; cited from earlier work.
Data set [1] has as its system spontaneous canine tumors. The settings on record: dog, in vivo; cited from earlier work.
Another data set has as its system first-relapse NHL. The conditions noted are these: with lomustine vs lomustine and placebo; cited from earlier work.
In the next data set the test system is MSC. The conditions noted are these: in vivo; cited from earlier work.
The subject of the next data set is canine osteosarcoma. The conditions noted are these: non-metastatic dogs, cisplatin followed by L-MTP-PE or placebo; cited from earlier work.
For the next data set, the system named is canine MGT. The conditions noted are these: dog, in vivo; cited from earlier work.
The test system of a further data set is high-grade osteosarcoma. The conditions noted are these: added to doxorubicin, cisplatin and high-dose methotrexate; cited from earlier work.
The subject of a further data set is Canine TCC. The conditions noted are these: dog, in vivo; cited from earlier work.
Data set [2] deals with circulating neutrophil counts. The conditions noted are these: immunosuppressive doses; cited from earlier work.
Another data set has as its system NHL. The settings on record: cited from earlier work.
Data set [3] relates to soft tissue sarcoma. The conditions noted are these: cited from earlier work.
Data set [4] relates to soft tissue sarcoma. The settings on record: intralesional, biphasic electric pulses; cited from earlier work.
Data set [5] has as its system canine soft tissue sarcoma. The conditions noted are these: bleomycin and electric pulses; cited from earlier work.
The next data set relates to cultured cells. The settings on record: cited from earlier work.
Data set [6] relates to soft tissue sarcoma (STS) or malignant histiocytosis (MH). The conditions noted are these: dog, in vivo.
Protocol: Depletion of MSC is accomplished by i.v. administration of LC, which is prepared as described for treatment of dogs with malignant histiocytosis (34). The LC is administered once every 2 weeks by slow i.v. infusion over 60 minutes, at a dose of 0.5 ml/kg.

Take `CCC[C@H](NC(=O)[C@@H](NC(=O)[C@H](NC(=O)[C@@H](NC(=O)CNC(=O)CN(C)C(C)=O)C(C)C)[C@@H](C)CC)[C@@H](C)O)C(=O)N[C@H](C(=O)N[C@@H](CCCNC(=N)N)C(=O)N1CCC[C@H]1C(=O)NCC)[C@@H](C)CC` [ABT-526] (Ac-[Sar]GV[d(aIle)]T[Nva]IRP-NHEt): the tumor growth entry with tumor growth is “slow tumor growth”. In data set [1], the relative activity entry is “more active than ABT-510”. In addition, in the data set on first-relapse NHL, the duration of response result is listed as “modestly enhanced” and the “number of cases responding to chemotherapy” value is “did not increase”.

Take `CC1=C(/C=C/C(C)=C/C=C/C(C)=C/C(=O)O)C(C)(C)CCC1` [ATRA, all-trans retinoic acid]: in the data set with MSC, the spontaneous anti-tumor immunity entry is recorded as “improved” and the vaccine responses result was “significantly enhanced”.

As to `N.N.[Cl][Pt][Cl]` [cisplatin], the median survival time in the data set on canine osteosarcoma is 9.8 months.

For `COc1cccc2c1C(=O)c1c(O)c3c(c(O)c1C2=O)C[C@@](O)(C(=O)CO)C[C@@H]3O[C@H]1C[C@H](N)[C@H](O)[C@H](C)O1` [doxorubicin], the anti-tumor activity entry in the data set on canine MGT was “a few partial responses”.

As to `O=P1(NCCCl)OCCCN1CCCl` (stereo not drawn) [ifosfamide], in the data set with high-grade osteosarcoma, the “drug free survival (DFS)” value is recorded as “did not significantly improve” and the “overall survival (OS)” value is reported as “did not significantly improve”.

Consider `CN1C(C(=O)Nc2ccccn2)=C(O)c2ccccc2S1(=O)=O` [piroxicam], for which, in the data set on Canine TCC, the objective response rate is listed as 18%.

Turning to `C[C@]12C=CC(=O)C=C1CC[C@@H]1[C@@H]2C(=O)C[C@@]2(C)[C@H]1CC[C@]2(O)C(=O)CO` [prednisone], in data set [2], the “time to rebound in circulating neutrophil counts” value is 48 to 72 h.

In the case of `Cc1ncc(CO)c(CO)c1O` [pyridoxine], the “relative risk of developing PPES, placebo group versus pyridoxine” value in the data set on NHL (daily Doxil with oral pyridoxine or placebo) is 4.2 times. In the data set with NHL (dog, in vivo), the PPES symptoms result was “delayed and lessened the symptoms”; the “remission rates between treatment groups” value is given as “No difference”.

Take `CC/C(=C(\c1ccccc1)c1ccc(OCCN(C)C)cc1)c1ccccc1` [tamoxifen]: in the data set with canine MGT, the anti-tumor activity entry is on record as “does not have demonstrable anti-tumor activity”.

With bleomycin, the “average time of recurrence” value in the data set with soft tissue sarcoma [3] (intraoperative bleomycin with electrotherapy) is recorded as 12 months. The “average time of recurrence” value with soft tissue sarcoma [3] (postoperative bleomycin with electrotherapy) is on record as 19 months. Further, in the data set with soft tissue sarcoma [4], the long term remissions is on record as 40% and the overall response rate is given as 80%. For the same compound, in [5], the “median time to recurrence” value was 730 days and the response rate is 95%. In addition, the internalized fraction in the data set on cultured cells is below 0.1%.

For liposomal clodronate [LC], the tolerability result in [6] is on record as “well-tolerated”.
